Reference: US10711004B2 (Genentech, Inc., priority 2018, dated 2020)
pIC50: −log10 of the molar value.

target: human TRPA1 channel (Homo sapiens (Human), UniProt O75762); assay: hTRPA1 CHO Ca2+ FLIPR Tetra assay, block of cinnamaldehyde induced calcium influx; type: cell-based; conditions: read-out: hTRPA1 IC50 (10 min); CHO cells expressing TRPA1; compounds incubated 10 minutes at room temperature before cinnamaldehyde agonist; Hill coefficient fixed to 1.5
Procedure: CHO cells expressing TRPA1 were plated into 384-well plates, incubated overnight at 37° C., and loaded with BD calcium indicator dye for 1 hr at 37° C. followed by 15 minutes at room temperature. The assay buffer was Hank's Balanced Salt Solution (HBSS) containing 20 mM HEPES (pH readjusted to 7.4) along with 0.02% BSA.
Following dye load and plate cool down, compounds were added to the cells using FLIPR Tetra. Plates were then incubated with compounds for 10 minutes or 90 minutes at room temperature prior to adding agonist. Following this incubation, about an EC50 concentration of cinnamaldehyde (75) was added to active the channels and block of cinnamaldehyde induced calcium influx was measured.
Fixing the Hill coefficient will generally reduce variability of the IC50 determination. The IC50 results were individually examined to make sure the MIN and MAX points were set correctly prior to validation of the results.

Chain of human TRPA1 channel (O75762 whole entry): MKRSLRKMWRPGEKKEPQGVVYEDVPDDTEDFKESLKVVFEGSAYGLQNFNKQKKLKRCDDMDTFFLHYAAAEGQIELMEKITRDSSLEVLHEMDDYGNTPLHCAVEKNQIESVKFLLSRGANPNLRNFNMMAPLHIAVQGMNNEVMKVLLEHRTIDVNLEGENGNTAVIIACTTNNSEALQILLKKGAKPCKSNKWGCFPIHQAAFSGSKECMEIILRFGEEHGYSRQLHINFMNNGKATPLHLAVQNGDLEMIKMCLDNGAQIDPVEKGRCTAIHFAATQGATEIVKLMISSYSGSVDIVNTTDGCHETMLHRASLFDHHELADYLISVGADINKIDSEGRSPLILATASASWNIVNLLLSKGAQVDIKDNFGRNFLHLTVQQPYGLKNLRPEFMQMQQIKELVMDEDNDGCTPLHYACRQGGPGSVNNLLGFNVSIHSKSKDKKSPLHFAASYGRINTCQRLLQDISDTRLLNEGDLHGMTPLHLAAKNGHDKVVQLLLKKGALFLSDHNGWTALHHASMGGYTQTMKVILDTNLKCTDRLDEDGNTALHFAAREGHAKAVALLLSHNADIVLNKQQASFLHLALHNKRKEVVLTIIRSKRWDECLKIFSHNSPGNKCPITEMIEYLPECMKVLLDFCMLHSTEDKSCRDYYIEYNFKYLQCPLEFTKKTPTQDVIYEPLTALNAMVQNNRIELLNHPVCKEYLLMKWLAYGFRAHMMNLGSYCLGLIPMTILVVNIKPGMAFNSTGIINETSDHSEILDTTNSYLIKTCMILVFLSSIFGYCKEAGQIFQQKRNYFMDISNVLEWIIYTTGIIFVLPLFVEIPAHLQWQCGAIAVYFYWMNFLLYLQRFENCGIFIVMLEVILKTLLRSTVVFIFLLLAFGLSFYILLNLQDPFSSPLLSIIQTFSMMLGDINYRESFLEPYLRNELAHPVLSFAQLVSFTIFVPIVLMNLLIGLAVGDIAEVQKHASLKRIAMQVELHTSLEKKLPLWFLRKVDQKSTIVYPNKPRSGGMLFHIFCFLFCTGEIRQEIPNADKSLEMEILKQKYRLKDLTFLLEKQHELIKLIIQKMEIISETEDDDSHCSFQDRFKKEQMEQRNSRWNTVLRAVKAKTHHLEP

| SMILES | pIC50 |
| --- | --- |
| Cn1cnc2ncn(Cc3nc([C@H]4[C@@H]5CN(c6ccc(OC(F)F)cc6)C[C@@H]54)no3)c(=O)c21 [Example Compound 12, 7-methyl-1-[[3-[(1R,5S,6 r)-3-[4-(difluoromethoxy)phenyl]-3-azabicyclo[3.1.0]hexan-6-yl]-1,2,4-oxadiazol-5-yl]methyl]purin-6-one] | 7.30 |
| COc1cccc(N2C[C@@H]3[C@H](C2)[C@H]3c2noc(Cn3cnc4ncn(C)c4c3=O)n2)c1 [Example Compound 13, 7-methyl-1-[[3-[(1R,5S,6 r)-3-(3-methoxyphenyl)-3-azabicyclo[3.1.0]hexan-6-yl]-1,2,4-oxadiazol-5-yl]methyl]purin-6-one] | 6.80 |
| Cc1ccnc2ncn(Cc3nc([C@H]4C[C@H](c5ccc(Cl)cc5)C4)no3)c(=O)c12 [Example Compound 17, 3-((3-((trans)-3-(4-chlorophenyl)cyclobutyl)-1,2,4-oxadiazol-5-yl)methyl)-5-methylpyrido[2,3-d]pyrimidin-4(3H)-one] | 7.67 |
| Cn1cnc2ncn(Cc3nc([C@H]4[C@@H]5CN(c6cccnc6)C[C@@H]54)no3)c(=O)c21 [Example Compound 18, 7-methyl-1-[[3-[(1R,5S,6r)-3-(3-pyridyl)-3-azabicyclo[3.1.0]hexan-6-yl]-1,2,4-oxadiazol-5-yl]methyl]purin-6-one] | 6.11 |
| Cn1cnc2c(C#N)nn(Cc3nc([C@H]4[C@@H]5CN(c6ccccc6)C[C@@H]54)no3)c2c1=O [Example Compound 22, 6-methyl-7-oxo-1-[[3-[(1R,5S,6s)-3-phenyl-3-azabicyclo[3.1.0]hexan-6-yl]-1,2,4-oxadiazol-5-yl]methyl]pyrazolo[4,3-d]pyrimidine-3-carbonitrile] | 6.45 |
| Cn1cnc2ncn(Cc3nc([C@@H]4[C@@H]5CN(c6cccc(Cl)c6)C[C@@H]54)no3)c(=O)c21 [Example Compound 24, 7-methyl-1-[[3-[(1R,5S,6 r)-3-(3-chlorophenyl)-3-azabicyclo[3.1.0]hexan-6-yl]-1,2,4-oxadiazol-5-yl]methyl]purin-6-one] | 8.08 |
| Cn1cnc2ncn(Cc3nc([C@H]4[C@@H]5CN(c6ccc(Cl)cc6)C[C@@H]54)no3)c(=O)c21 [Example Compound 25, 7-methyl-1-[[3-[(1R,5S,6 r)-3-(4-chlorophenyl)-3-azabicyclo[3.1.0]hexan-6-yl]-1,2,4-oxadiazol-5-yl]methyl]purin-6-one] | 7.69 |
| Cc1ccnc2ncn(Cc3nc(C4Cc5ccccc5C4)no3)c(=O)c12 [Example Compound 27, 3-((3-(2,3-dihydro-1H-inden-2-yl)-1,2,4-oxadiazol-5-yl)methyl)-5-methylpyrido[2,3-d]pyrimidin-4(3H)-one] | 6.27 |
| Cc1ccnc2ncn(Cc3nc([C@H]4[C@@H]5CN(c6ccc(Cl)cc6)C[C@@H]54)no3)c(=O)c12 [Example Compound 29, 5-methyl-3-[[3-[(1R,5S,6r)-3-(4-chlorophenyl)-3-azabicyclo[3.1.0]hexan-6-yl]-1,2,4-oxadiazol-5-yl]methyl]pyrido[2,3-d]pyrimidin-4-one] | 6.54 |
| Cn1cnc2ncn(Cc3nc([C@H]4[C@@H]5CN(c6cccc(C(F)(F)F)c6)C[C@@H]54)no3)c(=O)c21 [Example Compound 30, 7-methyl-1-[[3-[(1R,5S,6r)-3-[3-(trifluoromethyl)phenyl]-3-azabicyclo[3.1.0]hexan-6-yl]-1,2,4-oxadiazol-5-yl]methyl]purin-6-one] | 7.28 |
| Cn1cnc2ncn(Cc3nc([C@H]4[C@@H]5CN(c6ccc(C(F)(F)F)cc6)C[C@@H]54)no3)c(=O)c21 [Example Compound 31, 7-methyl-1-[[3-[(1R,5S,6r)-3-[4-(trifluoromethyl)phenyl]-3-azabicyclo[3.1.0]hexan-6-yl]-1,2,4-oxadiazol-5-yl]methyl]purin-6-one] | 7.01 |
| Cn1cnc2ncn(Cc3nc([C@H]4[C@@H]5CN(c6ccc(C=O)cc6)C[C@@H]54)no3)c(=O)c21 [Example Compound 32, 4-[(1R,5S,6r)-6-[5-[(7-methyl-6-oxo-purin-1-yl)methyl]-1,2,4-oxadiazol-3-yl]-3-azabicyclo[3.1.0]hexan-3-yl]benzaldehyde] | 7.26 |
| Cn1cnc2ncn(Cc3nc([C@H]4[C@@H]5CN(c6ccc7ccccc7c6)C[C@@H]54)no3)c(=O)c21 [Example Compound 33, 7-methyl-1-[[3-[(1R,5S,6r)-3-[2-naphthyl]-3-azabicyclo[3.1.0]hexan-6-yl]-1,2,4-oxadiazol-5-yl]methyl]purin-6-one] | 8.14 |
| Cn1cnc2ncn(Cc3nc([C@H]4[C@@H]5CN(c6ccc(Cl)nc6)C[C@@H]54)no3)c(=O)c21 [Example Compound 34, 7-methyl-1-[[3-[(1R,5S,6r)-3-[6-chloro-3-pyridyl]-3-azabicyclo[3.1.0]hexan-6-yl]-1,2,4-oxadiazol-5-yl]methyl]purin-6-one] | 6.33 |
| COc1ccc(N2C[C@@H]3[C@H](C2)[C@H]3c2noc(Cn3cnc4ncn(C)c4c3=O)n2)cc1 [Example Compound 35, 7-methyl-1-[[3-[(1R,5S,6r)-3-[4-methoxyphenyl]-3-azabicyclo[3.1.0]hexan-6-yl]-1,2,4-oxadiazol-5-yl]methyl]purin-6-one] | 7.32 |
| Cc1cncc2ncn(Cc3nc([C@H]4[C@@H]5CN(c6ccc(Cl)cc6)C[C@@H]54)no3)c(=O)c12 [Example Compound 36, 5-methyl-3-[[3-[(1R,5S,6r)-3-(4-chlorophenyl)-3-azabicyclo[3.1.0]hexan-6-yl]-1,2,4-oxadiazol-5-yl]methyl]pyrido[3,4-d]pyrimidin-4-one] | 7.15 |
| Cc1cncc2ncn(Cc3nc([C@H]4C[C@](F)(c5ccc(Cl)cc5)C4)no3)c(=O)c12 [Example Compound 37, 3-((3-((1s,3s)-3-(4-chlorophenyl)-3-fluorocyclobutyl)-1,2,4-oxadiazol-5-yl)methyl)-5-methylpyrido[3,4-d]pyrimidin-4(3H)-one] | 7.64 |
| Cc1ccnc2ncn(Cc3nc([C@H]4C[C@](F)(c5ccc(Cl)cc5)C4)no3)c(=O)c12 [Example Compound 38, 3-((3-((1s,3s)-3-(4-chlorophenyl)-3-fluorocyclobutyl)-1,2,4-oxadiazol-5-yl)methyl)-5-methylpyrido[2,3-d]pyrimidin-4(3H)-one] | 7.54 |
| Cn1cnc2ncn(Cc3nc([C@H]4[C@@H]5CN(c6cc(F)cc(F)c6)C[C@@H]54)no3)c(=O)c21 [Example Compound 92, 1-((3-((1R,5S,6r)-3-(3,5-difluorophenyl)-3-azabicyclo[3.1.0]hexan-6-yl)-1,2,4-oxadiazol-5-yl)methyl)-7-methyl-1,7-dihydro-6H-purin-6-one] | 7.69 |
| Cn1cnc2ncn(Cc3nc([C@H]4[C@@H]5C=C(c6ccc(F)c(F)c6)C[C@@H]54)no3)c(=O)c21 [Example Compound 93, 1-((3-((1S,5S,6R)-3-(3,4-difluorophenyl)bicyclo[3.1.0]hex-2-en-6-yl)-1,2,4-oxadiazol-5-yl)methyl)-7-methyl-1,7-dihydro-6H-purin-6-one] | 7.90 |
| Cn1cnc2ncn(Cc3nc([C@@H]4[C@H]5C=C(c6ccc(F)c(F)c6)C[C@H]54)no3)c(=O)c21 [Example Compound 94, 1-((3-((1R,5R,6S)-3-(3,4-difluorophenyl)bicyclo[3.1.0]hex-2-en-6-yl)-1,2,4-oxadiazol-5-yl)methyl)-7-methyl-1,7-dihydro-6H-purin-6-one] | 8.03 |

same assay, conditions: read-out: hTRPA1 IC50 (90 min); CHO cells expressing TRPA1; compounds incubated 90 minutes at room temperature before cinnamaldehyde agonist; Hill coefficient fixed to 1.5

| SMILES | pIC50 |
| --- | --- |
| Cn1cnc2ncn(Cc3nc([C@H]4[C@@H]5CN(c6cc(F)cc(F)c6)C[C@@H]54)no3)c(=O)c21 [Example Compound 92, 1-((3-((1R,5S,6r)-3-(3,5-difluorophenyl)-3-azabicyclo[3.1.0]hexan-6-yl)-1,2,4-oxadiazol-5-yl)methyl)-7-methyl-1,7-dihydro-6H-purin-6-one] | 8.51 |
| Cn1cnc2ncn(Cc3nc([C@H]4[C@@H]5C=C(c6ccc(F)c(F)c6)C[C@@H]54)no3)c(=O)c21 [Example Compound 93, 1-((3-((1S,5S,6R)-3-(3,4-difluorophenyl)bicyclo[3.1.0]hex-2-en-6-yl)-1,2,4-oxadiazol-5-yl)methyl)-7-methyl-1,7-dihydro-6H-purin-6-one] | 8.41 |
| Cn1cnc2ncn(Cc3nc([C@@H]4[C@H]5C=C(c6ccc(F)c(F)c6)C[C@H]54)no3)c(=O)c21 [Example Compound 94, 1-((3-((1R,5R,6S)-3-(3,4-difluorophenyl)bicyclo[3.1.0]hex-2-en-6-yl)-1,2,4-oxadiazol-5-yl)methyl)-7-methyl-1,7-dihydro-6H-purin-6-one] | 8.31 |
